Assay [1] concerns T. rubrum. Briefly: MIC, MMs and antifungals, T. rubrum. The class given is cell-based, Trichophyton rubrum (ATCC 10218). The conditions noted are these: Trichophyton rubrum, read-out: MIC of antifungal agent. As for the experimental part: Cell suspensions for susceptibility testing (MMs and conventional antifungals) were prepared per the Clinical & Laboratory Standards Institute (CLSI) guidelines (CLSI, 2017; CLSI, 2008). Before testing, yeasts (C. albicans and S. cerevisiae) were sub-cultured in Sabouraud Dextrose Agar-Emmons Modification (SDAE) plates and grown for 24 h at 30 °C. Five independent colonies from 24-h-old plates were collected and diluted to ~10^4 colony forming units (CFU) per mL in sterile saline (CLSI, 2017). Molds (A. fumigatus and the dermatophytes T. rubrum and M. gypseum) were sub-cultured on SDAE medium and incubated for 7 days at 28 °C. Conidia were recovered by covering the plates with sterile distilled water and scraping the colonies. The suspensions were filtered (8-μm pore size) and diluted in saline to ~10^4 CFU mL^−1 (Santos and Hamdan, 2005).
After a 30-min incubation in the dark, cell suspensions were transferred to small, sterilized glass beakers, which were then placed in a water bath. Each sample was irradiated with 405-nm light at 292 mW cm^−2 for 5 min, corresponding to a light dose of 87.6 J cm^−2, determined using an S415C thermal power sensor (Thorlabs, Newton, MA, USA). During irradiation, the cell suspensions were agitated with a small metal stirrer. […]

The subject of assay [2] is C. albicans. Put plainly: MIC, visible-light-activated MMs and conventional antifungals, C. albicans. The assay is classed as cell-based, Candida albicans (ATCC 18804). The conditions noted are these: Candida albicans, read-out: MIC of antifungal agent. In outline: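 C. albicans suspensions (~10^4 CFU/mL in saline, CLSI) incubated 30 min in the dark with MMs, then irradiated with stirring at 405 nm, 292 mW cm^−2 for 5 min (87.6 J cm^−2). Cells then grown in MOPS-buffered RPMI 1640 (pH 7.0) at 30 °C for 48 h; MIC is lowest concentration with no visible growth; conventional antifungals tested likewise.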

Assay [3] relates to S. aureus. Put plainly: MIC, S. aureus. The assay is classed as cell-based, Staphylococcus aureus. The conditions noted are these: Staphylococcus aureus, read-out: Antibiotic MIC. As for the experimental part: (§1) The appropriate volume of an MM stock at 8 mM necessary to achieve a concentration ranging from 0.3125 to 40 μM was pipetted into a 2 mL microcentrifuge tube to which 1 mL of cell suspension prepared as previously described was added. Corresponding negative controls (DMSO only) were prepared in the same way. The mixture was gently mixed by pipetting and incubated in the dark at 30 or 37 ° C, depending on the strain, for 30 min with agitation (220 rpm). Afterward, MM- or DMSO-treated cells were dispensed in one well of a 24-well plate positioned in the center of the light beam (405 nm LED Light, Prizmatix, UHP—F-5-405) placed at the appropriate distance necessary to achieve the desired light intensity of 304 mW cm-2, 146 mW cm2 or 87 mW cm2, as measured with a handheld digital power meter console coupled to an S415C thermal power sensor head (Thorlabs, Newton, MA, USA). The temperature during irradiation was monitored using a thermocouple probe (Model SC-TT-K-30-36-PP; Omega Engineering, Inc., Stanford, CT, USA). Samples were agitated during irradiation. Dark controls were prepared as previously described except that no irradiation was provided.
(§2) For MIC determination, samples treated with a range of concentrations of the different MM, as described above and were irradiated one at a time for 5 min at 146 mW cm^−2 (43.8 J cm^−2), after which irradiated aliquots were collected and inoculated into 1 mL MHB in a 2 mL microcentrifuge tube. Samples were incubated overnight at 30 or 37 ° C, depending on the strain, without agitation. Corresponding non-irradiated samples and negative controls (without bacteria) were also included. The following day, cultures were inspected for growth and the MIC was identified. The experimental procedure used to determine the MIC of visible light-activated MMs is schematically depicted in FIG. 26.

For assay [4], the system named is biofilms of P. aeruginosa and S. aureus. Briefly: Biofilm metabolically active cells (ATP). The conditions noted are these: 2×MIC, antibiotics 45 min, MMs 15 min + light, vs untreated. The class given is cell-based, Pseudomonas aeruginosa, Staphylococcus aureus. The protocol: (§3) This combination of methods is effective at evaluating the antibiofilm potential of chemicals (Stiefel et al., 2016). P. aeruginosa and S. aureus were grown overnight in tryptic soy broth (TSB) medium. The overnight cultures were diluted in 1:100 in fresh media and 100 μL aliquots were distributed in a 96-well plate. After 24 h of static growth at 37 ° C, planktonic cells were removed by inverting the plate onto a stack of paper towels, and the biofilm was washed three times with PBS. After washing, MM 1, MM 5, or MM 6 were added at 2×MIC to the biofilm and incubated statically in the dark for 60 min. The biofilm was then irradiated for 15, 30, or 45 min at 146 mW cm2. For the determination of the total bacterial number, acridine orange solution (2% in H2O) diluted 1:100 in Walpole's buffer (27.2 g L-1 sodium acetate trihydrate, adjusted to pH 4 with glacial acetic acid) was added to the wells.
For quantification of viable cells in biofilms, following the addition of 100 μL […] of TSB to each well, bacteria were detached from the biofilm by thorough mixing, after which […] of BacTiter-Glo™ reagent, prepared according to the manufacturer's instructions, was added to each well.

The subject of assay [5] is S. aureus. Briefly: G. mellonella burn wound infection model, S. aureus. The assay is classed as in vivo, Galleria mellonella. The conditions noted are these: S. aureus-infected G. mellonella, 1×MIC. The protocol:
(§4) Animal studies were conducted in the burn wound model Galleria mellonella recently described (Maslova et al., 2020). […] Larvae were sorted into Petri dishes lined with Whatman filter paper (Fisher Scientific, Pittsburgh, PA) and stored at 4 ° C until use. The larval bodies were sterilized with 70% ethanol. The burn was generated using a soldering iron (Weller WE1010 ESD-Safe Digital 70-Watt Soldering Station, 120V, Weller Company, Easton, PA, USA) to achieve a consistent burn area of ≈2 mm^2 in the middle section of the back of larvae. This location was chosen so the wound could be easily visualized without having to physically manipulate the larvae. Immediately post-burn, the wound was inoculated with 10 μL of 1:10 dilution of an overnight culture of A. baumannii or S. aureus. […] In order to minimize any potential temperature effects, a constant flow of 0.2 μm pore-size-filtered air was provided to the surface of the worm. Dark 1% DMSO controls were also included. The mortality of larvae post-treatment was monitored for up to 7 days. Mortality was recorded by complete melanization of the larval body and complete loss of motility. A brief overview of the protocol is schematically depicted in FIG. 44A. Work in Galleria mellonella was reviewed and approved by the Office of Sponsored Projects and Research Compliance (SPARC) of Rice University.

Assay [6] relates to biofilms of P. aeruginosa and S. aureus. Briefly: Biofilm total bacterial cell number (acridine orange). The class given is cell-based, Pseudomonas aeruginosa, Staphylococcus aureus. The conditions noted are these: 2×MIC, vs untreated controls. The protocol:
as §3

Assay [7] relates to A. baumannii. Briefly: MIC, A. baumannii. The class given is cell-based, Acinetobacter baumannii. The conditions noted are these: A. baumannii, broth microdilution. The protocol:
as §1, §2

Assay [8] relates to A. baumannii. Briefly: G. mellonella burn wound infection model, A. baumannii. The conditions noted are these: A. baumannii-infected G. mellonella, 1×MIC. The assay is classed as in vivo, Galleria mellonella. The protocol: as §4

≈ marks a conversion by molar mass, not a printed value.

For the compound `Cc1cc(C2CCCCC2)n(O)c(=O)c1` [Ciclopirox (CPX), Ciclopirox], the MIC in assay [1] was determined as 0.5 µg/mL; in assay [2], 1 µg/mL.

In the case of `NC[C@H]1O[C@H](O[C@H]2[C@H](O)[C@@H](O[C@H]3O[C@H](CO)[C@@H](O)[C@H](N)[C@H]3O)[C@H](N)C[C@@H]2N)[C@H](N)C[C@@H]1O` [Tobramycin], the MIC in assay [3] came out at 4 µg/mL (≈ 8.56 µM). Also, the “reduction in metabolically active cells in biofilm” value in assay [4] was 27%. Further, the “mortality after 7 days” value in assay [5] came out at 33%. In addition, the “reduction in total bacterial cell number in biofilm” value in assay [6] is listed as “up to 43%”.

As for Polymyxin B [reference compound], the “Antibiotic MIC” value in assay [7] is given as 0.125 μg per mL. Also, in assay [8], the “mortality after 7 days” value amounted to 69%.

A word on the MIC: it is the lowest concentration that inhibits growth of the organism.

The record behind these values is US20260355318A1, “MOLECULAR MACHINES FOR TREATMENT OF CANCER, FUNGAL INFECTIONS, OR BACTERIAL INFECTIONS” (priority 2022, published 2026).
